Measured values from publication PMC10746708, “A small molecule iCDM-34 identified by in silico screening suppresses HBV DNA through activation of aryl hydrocarbon receptor” (Cell Death Discovery, 2023).

What was measured:
HBV genotype C = experiment: Anti-HBV activity in HBV-infected PXB cells (HBV DNA by qPCR); assay type: cell-based; settings: Hepatitis B virus, 168 h; HBV genotype C-infected PXB cells, 0.03–100 µM for 7 days, qPCR; read-out: half maximal inhibitory concentration, cellular HBV DNA
Description: PXB cells (primary cultured human hepatocytes) were purchased from PhoenixBio (Higashi-Hiroshima, Japan) and cultured on collagen type I-coated 96- or 24-well plates in hepatocyte clonal growth medium at 37 °C and 5 % CO2 as previously described. RealTime-Glo MT Cell Viability Assay (Promega) and XTT assay were performed according to a previously established protocol.
PXB cells were plated on 96-well plate and infected with three genome equivalents per cell of HBV C_AT [33], and the medium was changed every 3 or 4 days. […] After treatment with these compounds, cellular DNA, medium DNA, and total RNA were automatically purified as per our previously established protocol. RNA purification of total RNA from cultured cells in the 24-well plate was performed using the RNeasy Mini Kit (Qiagen, Germantown, MD, USA) according to the manufacturer’s instructions.
HBV DNA copy numbers were determined using TaqMan Gene Expression Master Mix (Thermo Fisher Scientific) or Probe qPCR Mix (Takara Bio), specific primers, and probes in a qPCR system (Light Cycler 96 System, Roche, Basel, Switzerland or CFX96 Touch Real-Time PCR Detection System, Bio-Rad Laboratories, Hercules, CA, USA). The specific primers and probe used for detection of HBV DNA were as follows: forward primer: 5′-[…]-3′, reverse primer: 5′-[…]-3′, and probe: 5′-[FAM] […][TAM]-3′.

phospho-SAMHD1 = experiment: Western blotting of phospho-SAMHD1 in HepG2-NTCP-C4 cells; assay type: cell-based, human; settings: 30 μM, 1 day
Description: HepG2-NTCP-C4 cells were treated with 30 μM iCDM-17 and iCDM-34 for 1 day. The cells were lyzed with 20 mM TrisHCl pH 7.5 containing 100 mM NaCl, 10 mM EDTA, 1% TritonX-100, 1% Sodium deoxycholate, PhosSTOP (Roche), Complete EDTA free. The lysates were sonicated 30 s and mixed for 1 h with rotation at 4 °C. The lysates were centrifuged at 15,000 rpm for 10 min at 4 °C. The supernatants were analyzed by Western blotting using anti-phospho-SAMHD1 (Thr592) (Cell signaling technology, 89930, 1/1000), anti-SAMHD1 (Cell signaling technology, 49158, 1/1000), and β−actin (Santa Cruz, 1/1000).

[1] = Liver microsomal stability, mouse; assay type: in vitro ADME; settings: mouse liver microsomes
Description: (§1) Liver microsome stability studies (human, mouse, and rat) were performed at Sumika Chemical Analysis Service (Osaka, Japan) by following an established procedure. A mixture of 1 μM of substrate, 0.5 mg protein/mL of microsomes, and […] β-NADPH was incubated for 30 or 60 min and % remaining substrate was quantitatively measured by LC-MS/MS.

[2] = Liver microsomal stability, rat; assay type: in vitro ADME; settings: rat liver microsomes
Description: as §1

JAK/STAT signaling = experiment: Western blotting of phospho-STAT1, STAT2, STAT3 in HCV replicon cells; assay type: cell-based, human; settings: 30 μM, 24 h
Description: HCV replicon cells were treated with 30 μM CDM-3008, iCDM-17, and iCDM-34 for 1 day. The cells were lyzed with 1 x SDS sample buffer containing PhosStop, Complete EDTA free, and 1 mM EDTA. After sonication for 30 s, the lysates were centrifuged at 12,000g for 10 min at 4 °C, and then the supernatants were collected. After reducing the 20 μg of supernatants with 50 mM DTT at 98 °C for 2 min, the samples were separated by SDS-PAGE. STAT1, STAT2, STAT3, pSTAT1, pSTAT2, and pSTAT3 were detected by Western blotting using anti-STAT1 (9175, 1/1000), STAT2 (72604, 1/1000), STAT3 (12640, 1/1000), pSTAT1 (Y701) (7649, 1/1000), pSTAT2 (Y690) (88410, 1/1000), and pSTAT3 (Y705) (9145, 1/1000) antibodies (Cell signaling technology, Massachusetts, USA).

[3] = Liver microsomal stability, human; assay type: in vitro ADME; settings: human liver microsomes
Description: as §1

[4] = 1 μM substrate, 0.5 mg protein/mL, 30 min
[5] = 1 μM substrate, 0.5 mg protein/mL, 60 min

With COc1ccc(CNC(=O)c2nc(-c3ccc4c(c3)OCO4)no2)cc1OC [iCDM-17] the IC50 (HBV genotype C) was 56.6 µM, the phospho-SAMHD1 levels (phospho-SAMHD1) was “lower than pre-treatment levels” and the half-life at 1 μM [1] was 34.8 min. For the same compound, the remaining at 0.5 h, 1 μM [1, 4] was 45.8 ± 0.6%, the remaining at 1 h, 1 μM [1, 5] was 22.6% and the half-life at 1 μM [2] was 26.7 min. For the same compound, the remaining at 0.5 h, 1 μM [2, 4] was 32 ± 0.2%, the remaining at 1 h, 1 μM [2, 5] was 11.6 ± 0.2% and the “phosphorylation of STAT1, STAT2, and STAT3” value (JAK/STAT signaling) was “not induced”. For the same compound, the half-life at 1 μM [3] was 48.6 min, the remaining at 0.5 h, 1 μM [3, 4] was 61.4 ± 0.9% and the remaining at 1 h, 1 μM [3, 5] was 42.3 ± 0.1%.
